{"source": "paper PMC12021087", "about": "“RFWD3 Reprograms Nucleotide Metabolism Through PHGDH to Induce Chemoresistance In Osteosarcoma” (Advanced Science, 2025)", "target": "T1, RFWD3 (Ring Finger and WD Repeat Domain 3) (Homo sapiens, UniProt Q6PCD5)", "T1 construct": "endogenous full-length protein in whole lysate of 143B osteosarcoma cells, no tag", "T1 sequence (Q6PCD5 1-774)": "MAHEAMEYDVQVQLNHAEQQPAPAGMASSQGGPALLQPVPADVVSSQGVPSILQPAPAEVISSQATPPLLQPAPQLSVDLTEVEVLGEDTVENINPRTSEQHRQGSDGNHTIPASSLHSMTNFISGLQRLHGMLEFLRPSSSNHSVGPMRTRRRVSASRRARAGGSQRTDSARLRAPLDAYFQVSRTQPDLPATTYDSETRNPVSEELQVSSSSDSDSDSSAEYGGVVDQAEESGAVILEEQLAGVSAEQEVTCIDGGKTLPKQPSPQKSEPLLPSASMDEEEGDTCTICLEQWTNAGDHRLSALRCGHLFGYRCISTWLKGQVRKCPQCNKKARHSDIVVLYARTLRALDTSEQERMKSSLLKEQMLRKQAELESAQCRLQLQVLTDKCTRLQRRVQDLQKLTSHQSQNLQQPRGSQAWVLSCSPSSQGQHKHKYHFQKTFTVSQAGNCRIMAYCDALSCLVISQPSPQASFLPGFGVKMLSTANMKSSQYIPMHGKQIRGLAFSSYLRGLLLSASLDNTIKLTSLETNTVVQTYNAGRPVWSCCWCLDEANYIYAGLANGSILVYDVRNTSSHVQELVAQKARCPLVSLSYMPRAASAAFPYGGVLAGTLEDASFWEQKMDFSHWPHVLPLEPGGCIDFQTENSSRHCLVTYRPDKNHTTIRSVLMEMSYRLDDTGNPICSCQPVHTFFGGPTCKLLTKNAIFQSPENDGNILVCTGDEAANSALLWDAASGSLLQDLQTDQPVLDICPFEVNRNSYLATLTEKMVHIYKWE", "test": "CETSA (lysate, Western blot) and DARTS (pronase)", "format": "biochemical", "settings": "143B cell lysate; CETSA 10 µM lomitapide, 1 h room temperature, heated 5 min; DARTS 1 and 10 µM lomitapide, 4 h, pronase 2 µg/mL", "data": [{"compound": "O=C(NC1CCN(CCCCC2(C(=O)NCC(F)(F)F)c3ccccc3-c3ccccc32)CC1)c1ccccc1-c1ccc(C(F)(F)F)cc1", "note": "[lomitapide]", "values": [{"measurement": "CETSA (lysate, Western blot) and DARTS (pronase)", "result": "lomitapide protected RFWD3 from pronase degradation and significantly enhanced its thermal stability"}]}]}
